Measurements reported in US9145414B2, “1,2,4-triazine-6-carboxamide derivative” (TAIHO PHARMACEUTICAL CO., LTD., priority 2011, dated 2015).
Read-outs that look alike come from different tables or passages of the source.

How the values were obtained:
[1] = target: recombinant human Aurora B protein (Homo sapiens (Human), UniProt Q96GD4); assay: Aurora B kinase activity inhibitory effect; format: biochemical; details: Table 97; read-out: AuroraB inhibitory activity IC50
Protocol: (§1) The reaction solution was left standing in the dark at room temperature for 120 minutes. Then, fluorescence polarization values obtained by measurement using PHERAstar (BMG LABTECH JAPAN Ltd., excitation wavelength: 485 nm, detection wavelength: 520 nm) were used to determine the rate of phosphorylation reaction.

[2] = tested on: recombinant human Aurora B protein; assay: Aurora B kinase activity inhibitory effect; format: biochemical; details: Aurora B IC50 relative to Syk IC50
Protocol: as §1

[3] = target: human Syk protein (Homo sapiens (Human), UniProt P43405); assay: Syk kinase inhibition test; format: biochemical; details: read-out: SYK inhibitory activity IC50
Protocol: Finally, phosphorylated peptides and non-phosphorylated peptides were separated therebetween using LabChip™ 3000 system (Caliper Life Sciences, Inc., excitation wavelength: 488 nm, detection wavelength: 530 nm). Their respective amounts were measured, and the rate of phosphorylation reaction was then determined from the ratio between the amounts. The concentration at which the compound can inhibit 50% phosphorylation reaction is defined as an IC50 value (μM).
Also, known 1,2,4-triazine-6-carboxamide derivatives A, B, and C (WO2000/075113 (A: compound No. 121 and B: compound No. 154) and WO2000/076980 (C: compound No. 39)) were synthesized as control compounds. Their IC50 values (μM) were calculated in the same way as above and then compared with that of the compound of the present invention.

[4] = tested on: SU-DHL-6 cells (diffuse large-cell lymphoma cell line); assay: Cell growth inhibition test; format: cell-based; details: Homo sapiens, 72 h; SU-DHL-6 cells, 3 days culture, Table 96; read-out: Cell growth inhibition IC50
Protocol: The compound of the present invention was serially diluted with dimethyl sulfoxide and then added to an RPMI1640 medium containing 10% FBS. Each resulting solution was added at a concentration of 100 μl/well to the preceding SU-DHL-6 cell culture plate (final concentration of the compound: 10, 3, 1, 0.3, 0.1, 0.03, 0.01, and 0.003 μM). The cells were cultured at 37° C. for 3 days in an incubator containing 5% CO2. The cells thus cultured were left at room temperature for 30 minutes and then centrifuged at 1500 rpm for 3 minutes using a centrifuge (Hitachi Koki Co., Ltd., Himac CF7D2). A 100 μl aliquot of the supernatant was removed from each well to allow 100 μl of the cell culture solution to remain therein. This 100 μl of the remaining cell culture solution was supplemented with an equal amount of CellTiter-Glo Luminescent Cell Viability Assay (Promega KK, Cat#: G7573), and the mixture was then shaken for 1 minute using a plate mixer. The reaction solution was left in the dark for 10 minutes. Then, luminescence intensity derived from live cells of each well was measured using a microplate reader (PerkinElmer Inc., ARVOsx). […] Likewise, the IC50 values (μM) of the control compounds were also calculated and then compared with that of the compound of the present invention. Rate of cell growth inhibition(%)=(C−T)/C×100 T: luminescence intensity (count per second) of a well supplemented with the test compound C: luminescence intensity (count per second) of a well non-supplemented with the test compound

[5] = target: recombinant human KDR protein (Homo sapiens (Human), UniProt P35968); assay: KDR kinase activity inhibitory effect; format: biochemical; details: for KDR inhibitory activity: Selectivity for Syk: KDR IC50 relative to Syk IC50; for IC50: Table 97
recombinant human KDR protein, sequence (P35968 20-1356): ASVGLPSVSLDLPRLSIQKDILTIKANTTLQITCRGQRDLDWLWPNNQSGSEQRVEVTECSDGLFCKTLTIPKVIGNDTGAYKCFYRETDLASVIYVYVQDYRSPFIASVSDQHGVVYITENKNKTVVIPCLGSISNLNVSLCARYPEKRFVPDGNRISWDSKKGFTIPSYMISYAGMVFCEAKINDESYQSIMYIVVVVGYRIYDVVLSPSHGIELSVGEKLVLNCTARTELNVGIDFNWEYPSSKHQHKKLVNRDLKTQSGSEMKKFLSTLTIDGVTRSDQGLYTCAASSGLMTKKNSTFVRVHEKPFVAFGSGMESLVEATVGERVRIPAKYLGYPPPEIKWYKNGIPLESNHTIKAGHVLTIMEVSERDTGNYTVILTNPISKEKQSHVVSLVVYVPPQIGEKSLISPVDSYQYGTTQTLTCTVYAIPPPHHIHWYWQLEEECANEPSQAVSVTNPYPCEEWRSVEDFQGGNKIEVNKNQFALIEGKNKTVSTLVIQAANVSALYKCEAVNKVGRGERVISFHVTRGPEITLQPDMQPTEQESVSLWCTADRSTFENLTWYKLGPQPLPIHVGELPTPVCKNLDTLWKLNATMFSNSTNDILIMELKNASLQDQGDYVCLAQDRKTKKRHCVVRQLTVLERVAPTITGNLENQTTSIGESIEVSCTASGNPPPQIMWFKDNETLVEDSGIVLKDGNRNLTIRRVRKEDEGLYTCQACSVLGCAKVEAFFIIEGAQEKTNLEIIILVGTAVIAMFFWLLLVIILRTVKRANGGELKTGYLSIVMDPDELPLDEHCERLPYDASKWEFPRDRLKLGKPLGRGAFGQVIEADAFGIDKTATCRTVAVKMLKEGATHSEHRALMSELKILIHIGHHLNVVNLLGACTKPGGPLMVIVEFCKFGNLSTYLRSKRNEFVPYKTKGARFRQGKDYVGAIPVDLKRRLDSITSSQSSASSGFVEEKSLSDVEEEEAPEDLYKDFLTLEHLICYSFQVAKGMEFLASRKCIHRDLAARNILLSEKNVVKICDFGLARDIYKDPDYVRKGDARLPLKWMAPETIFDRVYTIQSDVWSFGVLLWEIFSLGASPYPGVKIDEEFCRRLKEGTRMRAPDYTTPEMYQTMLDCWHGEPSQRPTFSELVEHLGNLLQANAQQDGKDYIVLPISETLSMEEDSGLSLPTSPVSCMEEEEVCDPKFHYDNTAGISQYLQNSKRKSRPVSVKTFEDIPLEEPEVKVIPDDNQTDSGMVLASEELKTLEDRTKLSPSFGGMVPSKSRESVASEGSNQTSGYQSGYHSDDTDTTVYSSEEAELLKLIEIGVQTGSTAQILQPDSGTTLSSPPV
Protocol: The purified recombinant human KDR protein used in the test is a house purified product. […] The mixture was incubated at 30° C. for 180 minutes to perform kinase reaction. […] Their respective amounts were measured, and the rate of phosphorylation reaction was then determined from the ratio between the amounts.

recombinant human Aurora B protein (Homo sapiens (Human), UniProt Q96GD4), sequence (Q96GD4 whole entry): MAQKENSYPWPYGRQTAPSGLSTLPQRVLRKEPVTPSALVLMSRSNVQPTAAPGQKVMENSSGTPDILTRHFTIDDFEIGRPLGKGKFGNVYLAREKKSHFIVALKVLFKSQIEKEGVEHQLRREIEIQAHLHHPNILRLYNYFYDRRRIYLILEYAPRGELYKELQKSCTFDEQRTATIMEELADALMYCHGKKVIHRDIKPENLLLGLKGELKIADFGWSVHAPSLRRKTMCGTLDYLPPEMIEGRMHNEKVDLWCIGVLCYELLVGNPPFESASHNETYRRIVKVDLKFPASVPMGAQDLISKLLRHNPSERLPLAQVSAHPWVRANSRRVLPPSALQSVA

Row | IC50 [1] [nM] | AuroraB inhibitory activity: Selectivity for Syk [2] | IC50 ([3]; Table 95) [nM] | IC50 ([3]; Table 97) [nM] | IC50 [4] [nM] | KDR inhibitory activity: Selectivity for Syk [5] | IC50 [5] [nM] | SMILES
1 | 420 | (1500 times) | 0.28 | 0.28 | 27 | (>7000 times) | > 2000 | NC(=O)c1nnc(N[C@@H]2CCCC[C@@H]2N)nc1Nc1cc2ccccc2s1 [Example 161]
2 | > 10000 | (>20000 times) | 0.53 | 0.53 | 152 | (>20000 times) | > 10000 | NC(=O)c1nnc(N[C@@H]2CCCC[C@@H]2N)nc1Nc1ccc2cn(C(F)F)nc2c1 [Example 24, 3-((1R,2S)-2-aminocyclohexylamino)-5-(2-(difluoromethyl)-2H-indazol-6-ylamino)-1,2,4-triazine-6-carboxamide]
